Measurements as given in article PMC4131899 (Biochemistry, 2014).
Substitutions are numbered along the chain they refer to. Where two headings read alike, the source gives them in different places.

Legend:
[1] = test system: P450 (CYP2B4); experiment: Binding of redox mediator dyes to P450; conditions: data not shown
[2] = molecular target: T1, CYP2B4 F429H (Oryctolagus cuniculus, UniProt P00178, F429H); experiment: biochemical
T1 sequence (P00178 1-491 F429H): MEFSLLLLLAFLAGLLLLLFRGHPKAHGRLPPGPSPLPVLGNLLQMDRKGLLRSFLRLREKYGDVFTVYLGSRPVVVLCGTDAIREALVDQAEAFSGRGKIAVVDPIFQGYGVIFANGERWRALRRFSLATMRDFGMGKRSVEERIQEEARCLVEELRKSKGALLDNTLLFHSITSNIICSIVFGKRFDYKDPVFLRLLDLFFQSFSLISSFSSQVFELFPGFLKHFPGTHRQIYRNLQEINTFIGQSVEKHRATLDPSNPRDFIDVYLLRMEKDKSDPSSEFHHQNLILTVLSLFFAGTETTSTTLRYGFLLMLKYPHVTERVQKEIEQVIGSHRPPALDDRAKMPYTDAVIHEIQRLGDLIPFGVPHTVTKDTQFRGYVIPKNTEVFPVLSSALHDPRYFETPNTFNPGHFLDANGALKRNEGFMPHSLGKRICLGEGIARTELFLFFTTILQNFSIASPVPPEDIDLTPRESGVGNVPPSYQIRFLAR

[3] = molecular target: T2, wild type (WT) CYP2B4 (Oryctolagus cuniculus, UniProt P00178); experiment: Substrate binding
T2 sequence (P00178 1-491): T1 sequence (P00178 1-491 F429H) with H429F

[4] = molecular target: T3, WT CYP2B4 (Oryctolagus cuniculus, UniProt P00178); experiment: N-demethylation of benzphetamine in purified reconstituted system; format: biochemical, rabbit; conditions: wild type; 1 mM benzphetamine, varied reductase
T3 sequence (P00178 1-491): T1 sequence (P00178 1-491 F429H) with H429F
T3 sequence (P00388 1-678 partner): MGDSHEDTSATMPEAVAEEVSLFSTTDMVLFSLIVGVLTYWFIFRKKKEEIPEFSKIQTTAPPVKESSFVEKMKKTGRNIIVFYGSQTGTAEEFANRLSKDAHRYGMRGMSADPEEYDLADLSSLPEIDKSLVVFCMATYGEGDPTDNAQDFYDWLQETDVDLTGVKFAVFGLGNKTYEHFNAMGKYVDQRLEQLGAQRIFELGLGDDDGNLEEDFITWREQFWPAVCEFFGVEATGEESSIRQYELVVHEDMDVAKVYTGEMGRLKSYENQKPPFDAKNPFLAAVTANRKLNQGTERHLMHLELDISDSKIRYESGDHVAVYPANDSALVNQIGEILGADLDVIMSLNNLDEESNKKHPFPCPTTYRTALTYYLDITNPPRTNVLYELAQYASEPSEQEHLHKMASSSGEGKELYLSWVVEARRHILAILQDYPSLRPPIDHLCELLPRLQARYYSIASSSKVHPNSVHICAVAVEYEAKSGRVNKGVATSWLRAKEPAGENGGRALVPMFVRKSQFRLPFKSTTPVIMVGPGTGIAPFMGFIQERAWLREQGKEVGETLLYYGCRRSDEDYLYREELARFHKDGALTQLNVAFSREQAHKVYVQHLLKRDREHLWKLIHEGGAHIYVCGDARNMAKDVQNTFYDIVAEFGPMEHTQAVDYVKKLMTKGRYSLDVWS

[5] = molecular target: T1, CYP2B4 F429H
[6] = molecular target: T4, CYP2B4 F429H (Oryctolagus cuniculus, UniProt P00178, F429H); remark: listed apart in the source
T4 sequence (P00178 1-491 F429H): T1 sequence (P00178 1-491 F429H)
T4 sequence (P00388 1-678 partner): T3 sequence (P00388 1-678 partner)

[7] = molecular target: T5, WT CYP2B4 (Oryctolagus cuniculus, UniProt P00178); conditions: 1 mM benzphetamine, 20 °C
T5 sequence (P00178 1-491): T1 sequence (P00178 1-491 F429H) with H429F

[8] = molecular target: T1, CYP2B4 F429H; conditions: 1 mM benzphetamine, 20 °C

SMILES: Nc1ccc2nc3ccc(N)cc3[n+](-c3ccccc3)c2c1.[Cl-] [phenosafranin]
- spectral change on addition of dye to P450 [1]: did not cause any spectral change

SMILES: Cc1cc(C(C)(C)C)c(O)c(C(C)(C)C)c1 [butylated hydroxytoluene, 2,6-di-tert-butyl-4-methylphenol]
- Kd [2]: 1.82 ± 0.24 µM
- Kd [3]: 0.31 ± 0.14 µM

SMILES: c1ccc(C[n+]2ccc(-c3cc[n+](Cc4ccccc4)cc3)cc2)cc1 [benzyl viologen]
- spectral change on addition of dye to P450 [1]: did not cause any spectral change

SMILES: C[C@@H](Cc1ccccc1)N(C)Cc1ccccc1 [benzphetamine]
- Vmax (N-demethylation of BP) [4]: 49 ± 5 nmol of product min^–1 (nmol of 450)^−1
- decreased affinity of mutant vs WT ([5]; 30 °C, F429H vs WT): 5 fold
- enhancement of binding by cyt b5 ([5]; F429H, with vs without cyt b5): 5–6 fold
- activity retained relative to wild type (N-demethylation of BP) ([6]; F429H vs wild type): 3.6%
- Vmax (N-demethylation of BP) ([6]; F429H, 1 mM benzphetamine, varied reductase): 1.60 ± 0.05 nmol of product min^–1 (nmol of 450)^−1
- increase in Em on binding of benzphetamine [7]: 88 mV
- redox potential Em with BP ([7]; pH 7.4): –244 ± 7 mV
- increase in Em on binding of benzphetamine [8]: 15 mV
- redox potential Em with BP ([8]; pH 7.4): –230 ± 8 mV
- Kd ([2]; Ks, F429H, no reductase, no cyt b5, 15 °C): 900 ± 200 µM
- Kd ([2]; Ks, F429H, no reductase, no cyt b5, 30 °C): 390 ± 80 µM
- Kd ([2]; Ks, F429H, no reductase, with cyt b5, 15 °C): 150 ± 60 µM
- Kd ([2]; Ks, F429H, with reductase, no cyt b5, 15 °C): 830 ± 220 µM
- Kd ([3]; Ks, WT, no reductase, no cyt b5, 15 °C): 250 ± 7 µM
- Kd ([3]; Ks, WT, no reductase, no cyt b5, 30 °C): 80 ± 20 µM
- Kd ([3]; Ks, WT, no reductase, with cyt b5, 15 °C): 58 ± 6 µM
- Kd ([3]; Ks, WT, with reductase, no cyt b5, 15 °C): 220 ± 10 µM
